Measured values from patent US6054435A, “6-O-substituted macrolides having antibacterial activity” (priority 1999, dated 2000).
Values after ≈ are worked out from the molar mass of the structure shown.

Key:
Assay in all cases: in vitro antibacterial activity (MIC), agar dilution
Assay type in all cases: cell-based
Candida albicans CCH 442 = settings: organism code TT; BHI agar, 35-37° C., 20 to 24 hours; unit assumed
Outline: (§1)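 MIC was taken by eye as the lowest drug level showing no growth, only haze or isolated colonies relative to the growth control. Organisms were replicator-spotted at 1:100 (Streptococcus 1:10) onto BHI agar plates containing serial compound dilutions, with a same-class reference antibiotic plate included.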

[1] = tested on: Enterococcus faecium ATCC 8043; settings: organism code II; BHI agar, 35-37° C., 20 to 24 hours; unit assumed
Outline: as §1

Escherichia coli DC-2 = settings: organism code SS; BHI agar, 35-37° C., 20 to 24 hours; unit assumed
Outline: as §1

Escherichia coli JUHL = settings: organism code QQ; BHI agar, 35-37° C., 20 to 24 hours; unit assumed
Outline: as §1

Escherichia coli SS = settings: organism code RR; BHI agar, 35-37° C., 20 to 24 hours; unit assumed
Outline: as §1

[2] = tested on: Haemophilis Influenzae DILL AMP R; settings: organism code WW; BHI agar, 35-37° C., 20 to 24 hours; unit assumed
Outline: as §1

[3] = tested on: Micrococcus luteus ATCC 4698; settings: organism code PP; BHI agar, 35-37° C., 20 to 24 hours; unit assumed
Outline: (§2)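 Endpoint: lowest concentration with no growth, slight haze or sparsely isolated colonies at the inoculum spot, judged against a compound-free BHI control. Strains were replicator-inoculated at 1:100 (1:10 for Streptococcus and other slow growers).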

[4] = tested on: Micrococcus luteus ATCC 9341; settings: organism code OO; BHI agar, 35-37° C., 20 to 24 hours; unit assumed
Outline: as §2

[5] = tested on: Mycobacterium smegmatis ATCC 114; settings: organism code UU; BHI agar, 35-37° C., 20 to 24 hours; unit assumed
Outline: as §1

[6] = tested on: Nocardia Asteroides ATCC9970; settings: organism code VV; BHI agar, 35-37° C., 20 to 24 hours; unit assumed
Outline: as §1

[7] = tested on: Staphylococcus aureus 1775; settings: organism code GG; BHI agar, 35-37° C., 20 to 24 hours; unit assumed
Outline: as §1

[8] = tested on: Staphylococcus aureus A-5278; settings: organism code CC; BHI agar, 35-37° C., 20 to 24 hours; unit assumed
Outline: as §1

[9] = tested on: Staphylococcus aureus A5177; settings: organism code BB; BHI agar, 35-37° C., 20 to 24 hours; unit assumed
Outline: as §1

[10] = tested on: Staphylococcus aureus ATCC 6538P; settings: organism code AA; BHI agar, 35-37° C., 20 to 24 hours; unit assumed
Outline: as §1

[11] = tested on: Staphylococcus aureus CMX 553; settings: organism code FF; BHI agar, 35-37° C., 20 to 24 hours; unit assumed
Outline: as §1

[12] = tested on: Staphylococcus aureus CMX 642A; settings: organism code DD; BHI agar, 35-37° C., 20 to 24 hours; unit assumed
Outline: as §1

[13] = tested on: Staphylococcus aureus NCTC10649M; settings: organism code EE; BHI agar, 35-37° C., 20 to 24 hours; unit assumed
Outline: as §1

[14] = tested on: Staphylococcus epidermidis 3519; settings: organism code HH; BHI agar, 35-37° C., 20 to 24 hours; unit assumed
Outline: as §1

[15] = tested on: Streptococcus Pneumonia 5649; settings: organism code ZZA; BHI agar, 35-37° C., 20 to 24 hours; unit assumed
Outline: as §1

[16] = tested on: Streptococcus Pneumonia 5979; settings: organism code ZZ; BHI agar, 35-37° C., 20 to 24 hours; unit assumed
Outline: as §1

[17] = tested on: Streptococcus Pneumonia ATCC6303; settings: organism code XX; BHI agar, 35-37° C., 20 to 24 hours; unit assumed
Outline: as §1

[18] = tested on: Streptococcus Pneumonia GYR 1171; settings: organism code YY; BHI agar, 35-37° C., 20 to 24 hours; unit assumed
Outline: as §1

[19] = tested on: Streptococcus agalactiae CMX 508; settings: organism code KK; BHI agar, 35-37° C., 20 to 24 hours; unit assumed
Outline: as §1

[20] = tested on: Streptococcus bovis A-5169; settings: organism code JJ; BHI agar, 35-37° C., 20 to 24 hours; unit assumed
Outline: as §1

[21] = tested on: Streptococcus pyogenes 930; settings: organism code MM; BHI agar, 35-37° C., 20 to 24 hours; unit assumed
Outline: as §1

[22] = tested on: Streptococcus pyogenes EES61; settings: organism code LL; BHI agar, 35-37° C., 20 to 24 hours; unit assumed
Outline: as §1

[23] = tested on: Streptococcus pyogenes PIU 2548; settings: organism code NN; BHI agar, 35-37° C., 20 to 24 hours; unit assumed
Outline: as §1

Row | SMILES | MIC (Candida albicans CCH 442) [µg/mL] | MIC [1] [µg/mL] | MIC (Escherichia coli DC-2) [µg/mL] | MIC (Escherichia coli JUHL) [µg/mL] | MIC (Escherichia coli SS) [µg/mL] | MIC [2] [µg/mL] | MIC [3] [µg/mL] | MIC [4] [µg/mL] | MIC [5] [µg/mL] | MIC [6] [µg/mL] | MIC [7] [µg/mL] | MIC [8] [µg/mL] | MIC [9] [µg/mL] | MIC [10] [µg/mL] | MIC [11] [µg/mL] | MIC [12] [µg/mL] | MIC [13] [µg/mL] | MIC [14] [µg/mL] | MIC [15] [µg/mL] | MIC [16] [µg/mL] | also measured
1 | CC[C@H]1OC(=O)[C@H](C)C(=O)[C@H](C)[C@@H](O[C@@H]2O[C@H](C)C[C@H](N(C)C)[C@H]2O)[C@](C)(OCC#Cc2ccc(-c3cccc(NC(C)=O)c3)s2)C[C@@H](C)C(=O)[C@H](C)[C@H]2NC(=O)O[C@@]21C [Example 20] | > 100 | 0.05 (≈ 0.0587 µM) | 100 (≈ 117 µM) | > 100 | 0.2 (≈ 0.235 µM) | 4 (≈ 4.69 µM) | 0.1 (≈ 0.117 µM) | 0.02 (≈ 0.0235 µM) | 1.56 (≈ 1.83 µM) | 0.1 (≈ 0.117 µM) | > 100 | > 100 | 0.05 (≈ 0.0587 µM) | 0.1 (≈ 0.117 µM) | 0.1 (≈ 0.117 µM) | 0.1 (≈ 0.117 µM) | 0.1 (≈ 0.117 µM) | 0.1 (≈ 0.117 µM) | 0.25 (≈ 0.293 µM) | 0.5 (≈ 0.587 µM) | MIC [17]: 0.15 µg/mL (≈ 0.176 µM); MIC [18]: 0.015 µg/mL (≈ 0.0176 µM); MIC [19]: ≤ 0.005 µg/mL; MIC [20]: ≤ 0.005 µg/mL; MIC [21]: 6.2 µg/mL (≈ 7.28 µM); MIC [22]: 0.02 µg/mL (≈ 0.0235 µM); MIC [23]: 0.2 µg/mL (≈ 0.235 µM)
2 | CC[C@H]1OC(=O)[C@H](C)C(=O)[C@H](C)[C@@H](O[C@@H]2O[C@H](C)C[C@H](N(C)C)[C@H]2O)[C@](C)(OCC#Cc2ccc(-c3cccc([N+](=O)[O-])c3)s2)C[C@@H](C)C(=O)[C@H](C)[C@H]2NC(=O)O[C@@]21C [Example 21] | > 100 | 0.05 (≈ 0.0595 µM) | > 100 | > 100 | 0.2 (≈ 0.238 µM) | 8 (≈ 9.52 µM) | 0.05 (≈ 0.0595 µM) | 0.02 (≈ 0.0238 µM) | 0.2 (≈ 0.238 µM) | 0.2 (≈ 0.238 µM) | 100 (≈ 119 µM) | > 100 | 0.05 (≈ 0.0595 µM) | 0.1 (≈ 0.119 µM) | 0.05 (≈ 0.0595 µM) | 0.05 (≈ 0.0595 µM) | 0.1 (≈ 0.119 µM) | 0.2 (≈ 0.238 µM) | 0.5 (≈ 0.595 µM) | 2 (≈ 2.38 µM) | MIC [17]: 0.03 µg/mL (≈ 0.0357 µM); MIC [18]: 0.03 µg/mL (≈ 0.0357 µM); MIC [19]: 0.02 µg/mL (≈ 0.0238 µM); MIC [20]: 0.02 µg/mL (≈ 0.0238 µM); MIC [21]: 0.78 µg/mL (≈ 0.929 µM); MIC [22]: 0.02 µg/mL (≈ 0.0238 µM); MIC [23]: 0.2 µg/mL (≈ 0.238 µM)
3 | CC[C@H]1OC(=O)[C@H](C)C(=O)[C@H](C)[C@@H](O[C@@H]2O[C@H](C)C[C@H](N(C)C)[C@H]2O)[C@](C)(OCC#Cc2ccc(-c3ccc(F)cc3)s2)C[C@@H](C)C(=O)[C@H](C)[C@H]2NC(=O)O[C@@]21C [Example 22] | > 100 | 0.78 (≈ 0.959 µM) | > 100 | > 100 | 25 (≈ 30.8 µM) | 64 (≈ 78.7 µM) | 3.1 (≈ 3.81 µM) | 0.39 (≈ 0.48 µM) | 1.56 (≈ 1.92 µM) | 0.78 (≈ 0.959 µM) | > 100 | > 100 | 3.1 (≈ 3.81 µM) | 3.1 (≈ 3.81 µM) | 3.1 (≈ 3.81 µM) | 3.1 (≈ 3.81 µM) | 3.1 (≈ 3.81 µM) | 3.1 (≈ 3.81 µM) | 4 (≈ 4.92 µM) | 4 (≈ 4.92 µM) | MIC [17]: 1 µg/mL (≈ 1.23 µM); MIC [18]: 1 µg/mL (≈ 1.23 µM); MIC [19]: 0.39 µg/mL (≈ 0.48 µM); MIC [20]: 0.39 µg/mL (≈ 0.48 µM); MIC [21]: > 100 µg/mL; MIC [22]: 0.39 µg/mL (≈ 0.48 µM); MIC [23]: 3.1 µg/mL (≈ 3.81 µM)
